The first experiment relates to HL-60. The experiment is described as follows: Cytotoxicity against human HL60 cells. Format: functional, cell-based. Conditions: Homo sapiens, HL-60; read-out: IC50; call rule not given here.
Take `CN(C)CCNC(=O)c1ccc2c(NCCN=[N+]=[N-])c3ccccc3nc2c1`: the IC50 came out at 5.4 µM.
Still for that read-out and setting: as for `CN(C)CCNC(=O)c1ccc2c(NCCn3nnc4ccccc43)c3ccccc3nc2c1`, the figure is 262 µM.
Consider `CN(C)CCNC(=O)c1cccc2c(NCCN=[N+]=[N-])c3ccccc3nc12`, for which the IC50 was determined as 0.72 µM.
With `CN1CCN(C(=O)c2cccc3c(NCCN=[N+]=[N-])c4ccccc4nc23)CC1`, the IC50 came to 52 µM.
`CN1CCN(C(=O)c2ccc3c(NCCN=[N+]=[N-])c4ccccc4nc3c2)CC1`: the half-maximal inhibitory concentration (IC50) came to 45.7 µM.
Regarding `CN(C)CCNC(=O)c1cccc2c(NCCn3nnc4ccccc43)c3ccccc3nc12`, the IC50 is 23.4 µM.

The same experiment, now with this note: hl-60.
On to `CN1CCN(C(=O)c2cccc3c(NCCn4nnc5ccccc54)c4ccccc4nc23)CC1`, for which the IC50 result is listed as “Not Active”.
Same read-out and setting: as for `CN1CCN(C(=O)c2ccc3c(NCCn4nnc5ccccc54)c4ccccc4nc3c2)CC1`, the entry is “Not Active”.

The subject of a further experiment is Nucleic Acid. The experiment is described as follows: Binding affinity to DNA. Format: nucleic-acid assay.
Settings: not given
The molecule `CN(C)CCNC(=O)c1ccc2c(NCCN=[N+]=[N-])c3ccccc3nc2c1` displayed a log K of 6.37.
As to `CN(C)CCNC(=O)c1ccc2c(NCCn3nnc4ccccc43)c3ccccc3nc2c1`, the log K amounted to 6.54.
For `CN(C)CCNC(=O)c1cccc2c(NCCN=[N+]=[N-])c3ccccc3nc12`, the log K was determined as 6.49.
With `CN1CCN(C(=O)c2cccc3c(NCCn4nnc5ccccc54)c4ccccc4nc23)CC1`, the log K worked out at 5.65.
For the molecule `CN1CCN(C(=O)c2ccc3c(NCCn4nnc5ccccc54)c4ccccc4nc3c2)CC1`, the log K was 6.2.
For the molecule `CN(C)CCNC(=O)c1cccc2c(NCCn3nnc4ccccc43)c3ccccc3nc12`, the log K stood at 6.14.

The subject of a further experiment is Nucleic Acid. Put plainly: Displacement of ethidium bromide from DNA by titration.
Settings: not given
Regarding `CN(C)CCNC(=O)c1ccc2c(NCCN=[N+]=[N-])c3ccccc3nc2c1`, the C50 is 17.6 µM.
On to `CN(C)CCNC(=O)c1ccc2c(NCCn3nnc4ccccc43)c3ccccc3nc2c1`, for which the C50 amounted to 12.1 µM.
As for `CN(C)CCNC(=O)c1cccc2c(NCCN=[N+]=[N-])c3ccccc3nc12`, the C50 was 13.6 µM.
The same measure, in the same setting: as for `CN1CCN(C(=O)c2cccc3c(NCCn4nnc5ccccc54)c4ccccc4nc23)CC1`, the figure is 93.2 µM.
In turn, `CN1CCN(C(=O)c2cccc3c(NCCN=[N+]=[N-])c4ccccc4nc23)CC1` yielded a C50 greater than 200 µM.
For `CN1CCN(C(=O)c2ccc3c(NCCN=[N+]=[N-])c4ccccc4nc3c2)CC1`, the C50 was greater than 200 µM.
In the case of `CN1CCN(C(=O)c2ccc3c(NCCn4nnc5ccccc54)c4ccccc4nc3c2)CC1`, the C50 turned out to be 26.2 µM.
As for `CN(C)CCNC(=O)c1cccc2c(NCCn3nnc4ccccc43)c3ccccc3nc12`, the C50 was 30 µM.

Values taken from ChEMBL document CHEMBL1156050, “Synthesis and evaluation of 9-aminoacridines derived from benzyne click chemistry” (Bioorg Med Chem Lett, 2009).
